Measurements: patent US11667602B2, “Compounds and their use” (AstraZeneca AB, priority 2020, dated 2023)
Values after ≈ are worked out from the molar mass of the structure shown.

Tests used:
[1] = Human Plasma Protein Binding (Test B); type: in vitro ADME; details: fraction unbound (fu)
Outline: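 Human plasma protein binding run per the published Wernevik et al. (2020) integrated DMPK panel protocol. Values are fraction unbound (fu, % free); repeat runs averaged arithmetically.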

[2] = Human Liver Microsomal Stability (Test C); type: in vitro ADME; details: human, liver microsomes
Outline: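 Human liver microsome incubation per the Wernevik et al. integrated DMPK panel protocol. Intrinsic clearance reported as CLint in μl/min/mg protein, averaged arithmetically over repeat runs.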

[3] = Rat Hepatocyte Stability (Test E); type: in vitro ADME; details: rat, hepatocytes, geometric mean if run multiple times
Outline: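 Run per the published AstraZeneca-type rat hepatocyte stability protocol (Wernevik et al. panel). Values are mean intrinsic clearance, Clint in μl/min/10^6 cells; geometric mean used for repeated runs.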

Solubility (Test F) = type: physicochemical; details: arithmetic mean if run multiple times
Description: The assay was conducted according to the Solubility Assay described in pages 164-167 of Wernevik, J. et al., “A Fully Integrated Assay Panel for Early Drug Metabolism and Pharmacokinetics Profiling”, Assay and Drug Development Technologies, 2020, 18(4), 157-179. Data are reported in Table 36 as solubility ([…]. Where the assay was run multiple times for the same compound, the arithmetic mean is reported.

human RXFP1 = molecular target: T1, human RXFP1 (Homo sapiens, UniProt Q9HBX9); assay: RXFP1 Hu cAMP (Test A); type: cell-based; parameters: expressed in transfected cells; host or cells: Jump-In T-REx CHO-K1 cells (ThermoFisher), induced with 10 ng/ml doxycycline for 24 h; details: RXFP1 Hu cAMP; for EC50: read-out: Test A EC50
T1 sequence (Q9HBX9 1-757): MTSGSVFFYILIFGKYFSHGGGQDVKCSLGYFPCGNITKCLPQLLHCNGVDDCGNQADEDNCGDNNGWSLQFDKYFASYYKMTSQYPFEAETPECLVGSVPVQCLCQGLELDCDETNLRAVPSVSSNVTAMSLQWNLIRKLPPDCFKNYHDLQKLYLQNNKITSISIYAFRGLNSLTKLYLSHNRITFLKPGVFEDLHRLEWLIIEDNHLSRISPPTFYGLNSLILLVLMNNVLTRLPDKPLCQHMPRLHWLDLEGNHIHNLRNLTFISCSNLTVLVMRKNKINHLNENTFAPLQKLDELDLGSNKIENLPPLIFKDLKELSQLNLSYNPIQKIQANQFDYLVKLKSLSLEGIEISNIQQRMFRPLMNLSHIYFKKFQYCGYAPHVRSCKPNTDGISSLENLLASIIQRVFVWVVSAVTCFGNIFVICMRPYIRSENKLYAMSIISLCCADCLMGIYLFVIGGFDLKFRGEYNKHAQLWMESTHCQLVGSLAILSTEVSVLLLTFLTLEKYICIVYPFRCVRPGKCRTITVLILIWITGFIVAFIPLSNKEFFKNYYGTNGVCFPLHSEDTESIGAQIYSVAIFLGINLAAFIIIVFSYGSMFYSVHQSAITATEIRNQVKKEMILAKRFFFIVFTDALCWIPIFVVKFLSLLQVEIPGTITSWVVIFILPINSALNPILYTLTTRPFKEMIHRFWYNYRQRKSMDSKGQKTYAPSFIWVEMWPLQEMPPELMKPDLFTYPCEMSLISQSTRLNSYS
Outline: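 Competitive HTRF cAMP readout (2 h, room temperature) in CHO-K1 cells stably expressing human RXFP1, induced with 10 ng/ml doxycycline for 24 h; IBMX 0.5 mM final.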

Test B Human Plasma Protein Binding (% free) [1] | microsomal CLint [2] | hepatocyte CLint [3] | solubility (Solubility (Test F)) | Test A Sinf (human RXFP1) | EC50 (human RXFP1) | SMILES
47 % free | < 3 µL/min/mg | 12 µL/min/1e6 cells | 790 µM (≈ 428 µg/mL) | 100% | 41000 nM | COc1cc(C#N)c(O[C@H]2CC[C@@](C)(C(=O)O)CC2)cc1C(=O)N[C@@H]1[C@H]2CC[C@H](C2)[C@@H]1C(=O)NCC(C)(C)O [Example 76]
24 % free | < 3 µL/min/mg | 16 µL/min/1e6 cells | 920 µM (≈ 518 µg/mL) | 103% | 370 nM | COc1cc(C#N)c(O[C@H]2CC[C@@](C)(C(=O)O)CC2)cc1C(=O)N[C@@H]1[C@H]2CC[C@H](C2)[C@@H]1C(=O)NCC1(C#N)CCC1 [Example 93]
30 % free | < 3 µL/min/mg | 9.6 µL/min/1e6 cells | 920 µM (≈ 482 µg/mL) | 100% | > 4600 nM | COc1cc(C#N)c(O[C@H]2CC[C@@](C)(C(=O)O)CC2)cc1C(=O)N[C@@H]1[C@H]2CC[C@H](C2)[C@@H]1C(=O)NC1(C)CC1 [Example 100]
14 % free | 9 µL/min/mg | 32 µL/min/1e6 cells | 830 µM (≈ 461 µg/mL) | 111% | > 710 nM | COc1cc(C#N)c(O[C@H]2CC[C@@](C)(C(=O)O)CC2)cc1C(=O)N[C@@H]1[C@H]2CC[C@H](C2)[C@@H]1C(=O)NCC1(F)CCC1 [Example 94]
0.45 % free | 33 µL/min/mg | 59 µL/min/1e6 cells | 950 µM (≈ 605 µg/mL) | 101% | 340 nM | COc1cc(F)c(-c2ccc(CCC(=O)O)cc2)cc1C(=O)N[C@@H]1CCC[C@@H]1C(=O)Nc1cccc(S(=O)(=O)C(F)(F)F)c1 [Example 321]
1.9 % free | < 3 µL/min/mg | < 1 µL/min/1e6 cells | 60 µM (≈ 36.8 µg/mL) |  | > 50000 nM | COc1cc(F)c(O[C@H]2CC[C@@H](C(=O)O)CC2)cc1C(=O)N[C@@H]1[C@H](C(=O)Nc2ccc(F)c(C(F)(F)F)c2)[C@@H]2CC[C@H]1O2 [Example 50, (1S,4s)-4-(2-Fluoro-5-(((1R,2R,3S,4S)-3-((4-fluoro-3-(trifluoromethyl)phenyl)carbamoyl)-7-oxabicyclo[2.2.1]heptan-2-yl)carbamoyl)-4-methoxyphenoxy)cyclohexane-1-carboxylic acid]
0.24 % free | 27 µL/min/mg | 20 µL/min/1e6 cells | 80 µM (≈ 50.2 µg/mL) | 110% | 18 nM | COc1cc(F)c(O[C@H]2CC[C@@H](C(=O)O)CC2)cc1C(=O)N[C@@H]1[C@H]2CC[C@H](C2)[C@@H]1C(=O)Nc1ccc(Cl)c(C(F)(F)F)c1 [Example 186]
12 % free | 8.4 µL/min/mg | 32 µL/min/1e6 cells | 920 µM (≈ 524 µg/mL) | 122% | 140 nM | COc1cc(C#N)c(O[C@H]2CC[C@@](C)(C(=O)O)CC2)cc1C(=O)N[C@@H]1[C@H]2CC[C@H](C2)[C@@H]1C(=O)NCC1(F)CCCC1 [Example 92]
1.6 % free | 23 µL/min/mg | 120 µL/min/1e6 cells | 420 µM (≈ 237 µg/mL) | 110% | 680 nM | COc1cc(F)c(O[C@H]2CC[C@@H](C(=O)O)CC2)cc1C(=O)N[C@@H]1[C@H]2CC[C@H](C2)[C@@H]1C(=O)Nc1cccc(C2CC2)c1 [Example 190]
0.32 % free | 300 µL/min/mg | 47 µL/min/1e6 cells | 2 µM (≈ 1.41 µg/mL) | 103% | 370 nM | COc1cc(F)c(O[C@H]2CC[C@H](NS(C)(=O)=O)CC2)cc1C(=O)N[C@@H]1[C@H]2CC[C@H](C2)[C@@H]1C(=O)Nc1cccc(S(=O)(=O)C(F)(F)F)c1 [Example 460, (1R,2S,3R,4S)-3-(4-fluoro-2-methoxy-5-(((1r,4R)-4-(methylsulfonamido)cyclohexyl)oxy)benzamido)-N-(3-((trifluoromethyl)sulfonyl)phenyl)bicyclo[2.2.1]heptane-2-carboxamide]
2.4 % free | 22 µL/min/mg | 27 µL/min/1e6 cells | 960 µM (≈ 500 µg/mL) | 100% | 550 nM | CCC(CC)CNC(=O)[C@H]1CCC[C@H]1NC(=O)c1cc(O[C@H]2CC[C@@](C)(C(=O)O)CC2)c(F)cc1OC [Example 59, (1S,4s)-4-(5-(((1R,2S)-2-((2-Ethylbutyl)carbamoyl)cyclopentyl)carbamoyl)-2-fluoro-4-methoxyphenoxy)-1-methylcyclohexane-1-carboxylic acid]
8.6 % free | 7.4 µL/min/mg | 70 µL/min/1e6 cells | > 1000 µM |  | > 40000 nM | COc1cc(F)c(O[C@H]2CC[C@@H](C(=O)O)CC2)cc1C(=O)N[C@@H]1[C@H]2CC[C@H](C2)[C@@H]1C(=O)Nc1c(F)cccc1F [Example 184, (1S,4s)-4-(5-(((1S,2R,3S,4R)-3-((2,6-Difluorophenyl)carbamoyl)bicyclo[2.2.1]heptan-2-yl)carbamoyl)-2-fluoro-4-methoxyphenoxy)cyclohexane-1-carboxylic acid]
5.9 % free | 20 µL/min/mg | 59 µL/min/1e6 cells | 830 µM (≈ 436 µg/mL) | 114% | 270 nM | CCCCNC(=O)[C@H]1[C@@H]2CC[C@@H](C2)[C@H]1NC(=O)c1cc(O[C@H]2CC[C@@](C)(C(=O)O)CC2)c(C#N)cc1OC [Example 91]
1.8 % free | 18 µL/min/mg | 27 µL/min/1e6 cells | 770 µM (≈ 457 µg/mL) | 83% | 510 nM | COc1cc(F)c(O[C@H]2CC[C@@H](C(=O)O)CC2)cc1C(=O)N[C@@H]1[C@H]2CC[C@H](C2)[C@@H]1C(=O)Nc1cc(C(F)(F)F)ccn1 [Example 14, (1S,4s)-4-(2-Fluoro-4-methoxy-5-(((1S,2R,3S,4R)-3-((4-(trifluoromethyl)pyridin-2-yl)carbamoyl)bicyclo[2.2.1]heptan-2-yl)carbamoyl)phenoxy)cyclohexane-1-carboxylic acid]
0.53 % free | 31 µL/min/mg | 24 µL/min/1e6 cells | 530 µM (≈ 330 µg/mL) | 99% | 470 nM | COc1cc(NC(=O)[C@H]2[C@@H]3CC[C@@H](C3)[C@H]2NC(=O)c2cc(O[C@H]3CC[C@@H](C(=O)O)CC3)c(F)cc2OC)cc(C(F)(F)F)c1 [Example 194]
4 % free | 160 µL/min/mg | 19 µL/min/1e6 cells | 340 µM (≈ 197 µg/mL) | 112% | 15 nM | COc1cc(C#N)c(O[C@H]2CC[C@@](C)(C(=O)O)CC2)cc1C(=O)N[C@@H]1[C@H]2CC[C@H](C2)[C@@H]1C(=O)NCC1C(C)(C)C1(C)C [Example 84]
6.9 % free | 44 µL/min/mg | 37 µL/min/1e6 cells | 820 µM (≈ 464 µg/mL) | 120% |  | COc1cc(C#N)c(O[C@H]2CC[C@@](C)(C(=O)O)CC2)cc1C(=O)N[C@@H]1[C@H]2CC[C@H](C2)[C@@H]1C(=O)NCC1(C(C)C)CC1 [Example 78]
